Laboratory results reported in patent US20260183302A1, “PDK1 REGULATORY COMPOUND AND COMPOSITION CONTAINING THE SAME” (PROVIBIO CO., LTD., priority 2024, published 2026).
Entries after “also recorded” stand apart in the source; their conditions may differ.

What was measured:
[1] = test system: MRL/lpr mice with hair loss in the facial region; experiment: Hair loss treatment and hair follicle Ki-67 IHC in MRL/lpr mice; type: in vivo; conditions: 41-week-old female MRL/lpr; GO15F (30 mg/kg), GO48 (1 mg/kg), GO88 (0.5 mg/kg) intraperitoneal once daily
Protocol: Additionally, in 41-week-old female MRL/Ipr mice, the compounds GO15F (30 mg/kg), GO48 (1 mg/kg), and GO88 (0.5 mg/kg) were administered intraperitoneally once daily.
To confirm the proliferative activity of hair follicle cells in the skin tissue of these mice, the mice were sacrificed 14 days after administration of the compounds of the present invention, and Ki-67 immunohistochemistry (IHC) was performed.
For this purpose, the excised skin tissue was fixed in formalin, embedded in paraffin blocks, and stained with a Ki-67-specific antibody on tissue sections prepared as slides.

[2] = test system: PDK1 phosphorylation in SU-DHL-8 cells; experiment: PDK1 phosphorylation inhibition by flow cytometry (pPDK1-PE) in SU-DHL-8 cells; type: cell-based, human; conditions: SU-DHL-8, 24 hours, vs control group, listed as GO48
Protocol: After stabilizing the cells, the compound of the present invention was added, and the cells were cultured for 24 hours.
After drug treatment, the cells were harvested, and the Fc receptor blocking process was performed. The cells were then fixed and permeabilized using the Intracellular Staining Kit (Cat. No. BD554715) from BD Biosciences. Subsequently, the intracellular pPDK1 was stained using the pPDK1-PE fluorescently labeled antibody (BD Biosciences).
Referring to the figure, the vertical axis represents the phosphorylation level of PDK1 (phospho-PDK1 expression level), and the horizontal axis denotes the concentration-dependent treatment conditions of each compound.

[3] = test system: HCT-116 colon cancer cell lines; experiment: Matrigel Invasion Assay on HCT-116 colon cancer cell line; type: cell-based, human; conditions: HCT-116, Matrigel, 24 hours treatment, vs DMSO
Protocol: To evaluate the metastasis inhibitory efficacy of the compounds of the present invention on HCT-116 colon cancer cell lines, an Invasion Assay using Matrigel was performed to assess the cells' invasion ability.
First, Matrigel was thawed on ice in RPMI-1640 medium without FBS, then diluted with DMEM at a ratio of 1:20.
The diluted Matrigel mixture was applied to the upper chamber at 100 μl per well, and 750 μl of RPMI-1640 without FBS was added to the lower chamber.
The plates were then incubated at 37° C. for 1 hour to allow the Matrigel to solidify.
After coating, the Matrigel mixture in the upper chamber was removed using a pipette, and the chamber was washed with RPMI without FBS.
Human-derived colorectal cancer cell line HCT-116, obtained from the Korean Cell Bank, was cultured in RPMI-1640 medium containing 10% FBS.
Following stabilization, the cells were harvested using Trypsin-EDTA treatment, centrifuged at 1,200 rpm for 3 minutes, the supernatant was removed, and the cells were resuspended in the same medium, the medium in the lower chamber was replaced with 750 μl of RPMI-1640 supplemented with 10% FBS, and the cells were seeded into the upper chamber at a density of 5×10^4 cells/well.
The cells were cultured for 24 hours after attachment, and then the compounds according to the present invention (G078, G085, G086, G088, G089, PBK-2024-010, PBK-2025-010, PBK-2025-013, PBK-2025-016) and the control substance DMSO were diluted and added to the upper chamber after removing the medium.
Additionally, the medium in the lower chamber was replaced with fresh RPMI-1640 containing FBS, and the culture was continued.
After an additional 24 hours, the medium was removed, and 1 ml of methanol was added for 10 minutes to fix the cells.
Subsequently, 1 ml of Hematoxylin was added and reacted for 5 minutes, followed by 1 ml of Eosin, which was reacted for 30 seconds. The sample was then washed with distilled water (DW).
After staining was complete, any remaining cells in the upper chamber were removed. Finally, the infiltrated cells were observed under a microscope, photographed, and the degree of infiltration was analyzed.

psoriasis-induced mice = experiment: In vivo psoriasis model (Aldara cream, Imiquimod); set-up: species or system BALB/c mice
Protocol: To verify the therapeutic effect of the compound according to the present invention on psoriasis, a psoriasis animal model was established as follows, and the compound according to the present invention was administered to evaluate the alleviation of skin lesions and changes in immune cell patterns.
For the establishment of the psoriasis animal model, BALB/c mice (7 weeks old, female, 20 g) were purchased from HanabioTech Co., Ltd. and acclimatized to the rearing environment for one week.
Subsequently, the hair on the mouse back was shaved using a hair removal device for the first time, and then completely shaved using a depilatory cream (Nicrin Cream (80% thioglycolic acid, Il Dong Pharmaceutical)) for the second time. The mice were then kept for 24 hours to confirm the absence of skin damage.
To verify the psoriasis prevention and therapeutic effects of the compounds according to the present invention, the following experimental groups were established:
[Normal control group (Normal, Not Treatment), psoriasis-induced control group (Psoriasis, Not Treatment), psoriasis-induced vehicle control group (Psoriasis, Vehicle), experimental group (GO85, GO86, GO88, GO89, PBK-2024-010, PBK-2024-026, PBK-2025-002, PBK-2025-004, PBK-2025-016, PBK-2025-017, PBK-2025-023)]. […]
Body weights of mice in each group were measured on days 1, 4, and 8 after the start of injection and psoriasis induction. […]
To evaluate the therapeutic effect in a psoriasis-induced mouse model, the PASI (Psoriasis Area and Severity Index) score was measured.
The PASI score is based on three criteria: erythema, scaling, and skin thickness, each scored from 0 (none) to 4 (severe). […]
Observations were conducted daily at the same time, and the same observer visually assessed each criterion and recorded the scores, with the results presented in FIG. 13. […]
All samples were measured in duplicate, and the absorbance was measured at 450 nm using a microplate reader.

Row | Structure (SMILES) | hair growth on the facial region [1] | phospho-PDK1 expression level [2] | number of infiltrated cells (invasion) [3] | efficacy in improving dermatological symptoms (psoriasis-induced mice)
1 | Nc1ncccc1C(=O)NCCCCCCCCCCCCN1CCOCC1 [Compound 2, 2-amino-N-(12-morpholin-4-yl-dodecyl)-nicotinamide] | hair growth was confirmed | stronger PDK1 inhibition; also recorded: high inhibitory effects even at low concentrations | – | –
2 | Nc1nc(NC(=O)CCCCCCCCCCCCN2CCN(CCO)CC2)nc2nc[nH]c12 [Compound 15, 12-[4-(2-hydroxyethyl)piperazin-1-yl]dodecyl-N-(6-aminopurine-2-yl) carboxamide] | – | – | reduction in the number of infiltrated cells | excellent efficacy in improving dermatological symptoms
